Source: paper PMC9569447 (International Journal of Molecular Sciences, 2022)
Read-outs that look alike come from different tables or passages of the source.

Key:
[1] = system: diet-induced obese (DIO) Sprague Dawley rats; assay: Post-treatment serum levels after the 22-day treatment; type: in vivo, rat; conditions: serum, 2 h post final injection after 22 days; mean ± SEM; n = 6 (Oxytocin n = 4)
Experimental: Cardiac puncture was used to collect blood for analysis 2 h post final injection. Commercially available enzyme-linked immunosorbent assays (ELISA) were used for quantitative assessment of leptin (cat. # EZRL-83K; MilliporeSigma, Burlington, MA, USA), insulin (cat. # EZRMI-13K; MilliporeSigma, Burlington, MA, USA), and adiponectin (cat. # EZRAPD-62K MilliporeSigma, Burlington, MA, USA). Serum samples were diluted 1:500 for the adiponectin ELISA using the sample diluent provided with the kit. All ELISAs were completed following the manufacturers recommendations. Levels of glucose, cholesterol (total, HDL, and calculated LDL), triglycerides, ALT, and AST were determined in the serum on a Modular P chemistry analyzer (Roche Diagnostics, Risch-Rotkreuz, Switzerland) by the University of Washington Nutrition and Obesity Research Center’s Analytic Core (Seattle, WA, USA).

[2] = native OXT; cited from earlier work
Description: This OXT analog is a full agonist at OXT receptor, and it addressed some of the limitations of using OXT as a weight loss therapeutic.

[3] = rat, in vivo, sc; cited from earlier work
[4] = mouse, in vivo, sc; cited from earlier work

For `CC[C@H](C)[C@@H]1NC(=O)[C@H](Cc2ccc(O)cc2)NC(=O)[C@@H](N)CSSC[C@@H](C(=O)N2CCC[C@H]2C(=O)N[C@@H](CC(C)C)C(=O)NCC(N)=O)NC(=O)[C@H](CC(N)=O)NC(=O)[C@H](CCC(N)=O)NC1=O` [OXT, oxytocin], the ALT [1] is given as 40 ± 5 U/L, the AST [1] is given as 128 ± 22 U/L and the half-life in vivo [2] is given as roughly 5 min. For the same compound, the CLplasma [3] was 17.1 mL/min/kg, the T1/2 [3] was 7.2 min and the Vd [3] was 0.085 L/kg. The Cmax [4] was 216 nM, the “Free Cmax” value [4] was 191 nM and the T1/2 [4] was 30 min. The Tmax [4] was 15 min.
